The data set in a line: Human HepG2 cell viability assay in 384 well format. Also on record: dose 125 nL, time 70.5 hour; cytotoxicity at 70.5 h: concentration not given beside the values. Particulars: HepG2 cells, read-out: Inhibition. It counts as toxicity, cell-based.

The structures appear in SMILES notation.

Regarding `CCCOC1CCCN(Cc2nc(-c3ccc(F)cc3F)oc2C)C1` (stereo not drawn), the cytotoxicity at 70.5 h was -5.84%.
Consider `O=C(O)[C@@H]1CN(Cc2ccc(-c3cc[nH]n3)s2)C[C@H]1C1CC1`, for which the cytotoxicity at 70.5 h was -4.26%.
Consider `CN1CCC(CNC(=O)Cc2ccc(N(C)C)cc2)CC1`, for which the cytotoxicity at 70.5 h was -6.81%.
Under `O=C(c1coc(CN2CCN(c3ccccc3F)CC2)n1)N1CC=CC1` stands 15.2%.
For `Cc1ccccc1CN(CCN(C)C)Cc1ccc(O)c(C(=O)O)c1` the value was -8.19%.
For `Cn1cc2ncn(CCCOc3cccnc3)c(=O)c2n1`, the cytotoxicity at 70.5 h amounted to 22.8%.
In the case of `CN1CC2(CCCN(c3cnccn3)C2)OC1=O` (stereo not drawn), the cytotoxicity at 70.5 h was -9.73%.
For `CCCc1nnc(N2C[C@@H](C)[C@@](C)(O)C2)s1`, the cytotoxicity at 70.5 h came out at 12%.
For `Cc1ccccc1-n1cc(-c2ccnc(N3CCCC(CN)C3)n2)cn1` (stereo not drawn), the cytotoxicity at 70.5 h is -7.47%.
In the case of `CC(=O)NC1CCN(c2nc(N)nc3c2CCCC3)C1` (stereo not drawn), the cytotoxicity at 70.5 h is -8.84%.
Take `CC(O)C1CCN(Cc2cnc3c(-c4ccccc4)cnn3c2)CC1` (stereo not drawn): the cytotoxicity at 70.5 h is -7.53%.
With `CN(C)C(C(=O)N1Cc2ccccc2C1)c1ccccc1F` (stereo not drawn), the cytotoxicity at 70.5 h is -2.59%.
In the case of `O=C(NCCc1c[nH]cn1)c1ccccc1C1CCNC1` (stereo not drawn), the cytotoxicity at 70.5 h turned out to be 18%.
On to `CCN(Cc1cnn(CC)c1)Cc1c(Cl)cncc1Cl`, for which the cytotoxicity at 70.5 h was -2.13%.
With `O=C(c1ccncc1F)N1C[C@H]2CC[C@@H]1CN(Cc1cccnc1)C2`, the cytotoxicity at 70.5 h was -4.95%.
In the case of `CCn1ncnc1C(C)NC(=O)C1CCN(C2CCCCC2)CC1` (stereo not drawn), the cytotoxicity at 70.5 h was -7.1%.
Consider `COCCN1CCN(Cc2nccs2)[C@H]2CS(=O)(=O)C[C@H]21`, for which the cytotoxicity at 70.5 h was -2.69%.
Regarding `Fc1ccc(C2(CNCCc3cccs3)CCOC2)cc1` (stereo not drawn), the cytotoxicity at 70.5 h is -6.84%.
For `O=C(O)[C@@H]1CN(C(=O)CN2Cc3ccccc3C2)C[C@H]1c1ccncc1`, the cytotoxicity at 70.5 h is -1.71%.
In the case of `O=C(O)[C@@H]1CN(C(=O)CCCc2ccc(F)cc2)C[C@H]1C1CC1`, the cytotoxicity at 70.5 h was -5.36%.
Under `C=Cc1cccc(CN2C[C@@H](CN(C)CC)[C@@H](CO)C2)c1` stands 3.14%; under `O=C(O)c1ccc(CC2CCN(Cc3ccc(-c4cc[nH]n4)o3)C2)cc1` (stereo not drawn), -5.13%; under `Cc1cc(C)cc(-n2ncc3c2CCCC3N)c1` (stereo not drawn), -5.06%.
On to `COCCC(=O)N(Cc1cccnc1)CC1CCN(C2CCCC2)CC1`, for which the cytotoxicity at 70.5 h worked out at 3.05%.
On to `Cc1nc(N(CCC(N)=O)Cc2ccccc2)c2nc(C)oc2n1`, for which the cytotoxicity at 70.5 h worked out at 9.6%.
Consider `O=C(NCCc1nc2ccccc2s1)c1coc(CN2CCOCC2)c1`, for which the cytotoxicity at 70.5 h turned out to be 5.71%.
Regarding `CC(C)NC(=O)[C@@H]1C[C@@H](N)CN1C(=O)CCSCc1ccccc1`, the cytotoxicity at 70.5 h worked out at 1.3%.
For `O=C(CN1CCCC1=O)NCc1cccnc1Oc1ccc(F)c(F)c1`, the cytotoxicity at 70.5 h was 1.24%.
Take `C[C@@H]1CN(C(=O)CCN2CCOCC2)CC[C@]1(C)O`: the cytotoxicity at 70.5 h is -2.33%.
For `Cc1ccc(CN(CCN(C)C)C(=O)Nc2cc(C(N)=O)ccc2C)s1` the value was 21.3%; for `Cc1cc(-c2ccccc2Cl)nc(N)n1`, -8.36%; for `N#Cc1cccc(CN2CCN(C(=O)C3CCC3)[C@@H]3CS(=O)(=O)C[C@@H]32)c1`, -4.15%.
Under `O=S(=O)(c1ccc(-c2cnco2)cc1)N1CCC2(CCCNC2)C1` (stereo not drawn) stands -1.83%; under `CN1CCC(N2CC[C@@H]3[C@@H](CCC(=O)N3CCC3=CCCCC3)C2)CC1`, -1.35%; under `COc1nccnc1N1CCC2(CC1)C(=O)N(C)c1ccccc12`, -2.17%.
Under `O=C(c1n[nH]c2c1CCC2)N1CCCC1c1nc(-c2ccccc2)no1` (stereo not drawn) stands -1.83%; under `CN(C)c1ccc(C2CC(=O)Nc3c2cnn3Cc2ccco2)cc1` (stereo not drawn), -7.08%; under `CC(C)(C)C1CCC(NCCN2CCOCC2)CC1` (stereo not drawn), -5.37%.

The record behind these values is ChEMBL document CHEMBL3507680, “University of Dundee, Gates Library screen for HepG2 cell viability”.
